# From patent US20180126048A1, “NANOPARTICLE-MEDICATED GENETIC DELIVERY OF GROWTH INHIBITING GENES ON BALLOON ANGIOPLASTY TO SUPPRESS INTIMAL HYPERPLASIA” (Board of Education of the Vocational Schools in the County …, priority 2014, published 2018)
# Test system: left carotid artery
# Assay: Glycerol infusion into the artery (cannulation) during carotid injury surgery
# Type: in vivo, rat
# Details: glycerol infused into the artery, compared to glycerol coated on a balloon
# Description: In total, nine surgeries were performed on nine separate rats. The initial two surgeries represented the first control group—standard left carotid artery injury surgeries. The next two surgeries comprised the second control group—rats which received a standard left carotid artery injury surgery, modified slightly to include a glycerol coating without nanoparticles-carried plasmids on the catheter to test whether or not the substance (without the shRNA-encoding plasmid) had any noteworthy effects on the artery and/or the overall health of the animal before the nanoparticle treatment was delivered. The balloon was immersed in glycerol until 100 μL had covered its surface. Another two surgeries served as an experimental group to compare the method of delivery with the glycerol-coated balloon to a more direct method of delivery: infusion. After the arteriotomy was performed, the artery was cannulated (filled) with a syringe of 100 μL of 50% glycerol and flushed. The procedure then proceeded as previously described. The last three surgeries served as the experimental group utilizing the nanoparticles suspended in the glycerol that coated the balloon.
# Intimal hyperplasia was further quantified using a software program, Image J, developed by the National Institutes of Health, which calculates the intimal area through image analysis. […]
compound,measurement,value
OCC(O)CO [glycerol],blood clot formation after infusion,blood clot formation
